Source: US20070286867A1, “Combination Therapy” (Fusion Antibodies Limited, priority 2003, published 2007)
Where a SMILES comes first, the peptide text is derived from it. The star is where a group is joined. Cbz = O=C(OCc1ccccc1)*; CH2F = FC*

Key:
[1] = test system: HCT116p53^+/+ cells; assay: MTT cell viability assay in HCT116 p53 wild-type cells; format: cell-based, human; settings: for interaction with CH-11 in MTT assay: range of drug concentrations 24 hours, then CH-11 200 ng/ml for 48 hours
Description: (§5) Cell Viability Assays. Cell viability was assessed by MTT (3-(4,5-dimethylthiazol-2-yl)-2,5-diphenyltetrazolium bromide, Sigma) assay (12). […] MTT (0.5 mg/ml) was then added to each well and the cells incubated at 37° C. for a further 3 hours. The culture medium was removed and formazan crystals reabsorbed in 200 μL DMSO. Cell viability was determined by reading the absorbance of each well at 570 nm using a 96-well microplate reader (Molecular Devices, Wokingham, England). […] Twenty microlitres (20 μL) MTT (5 mg/ml) was then added to each well and the cells incubated at 37° C. for a further 3 hours. The culture medium was removed and formazan crystals reabsorbed in 200 μL DMSO. Cell viability was determined by reading the absorbance of each well at 570 nm using an ELISA plate reader (Molecular Devices).
(§6) Statistical Analyses. The nature of the interaction between the chemotherapeutic drugs and CH-11 was determined by calculating the R index (RI), which was initially described by Kern and later modified by Romaneli (13, 14). […] Synergism is then defined as an RI of greater than unity. […] To further assess the statistical significance of the interactions, the inventors designed a univariate ANOVA analysis using the SPSS software package. This was an additive model based on the null hypothesis that there was no interaction between the drugs.

[2] = test system: H630 cells; assay: MTT cell viability assay in p53 mutant H630 cells; format: cell-based; settings: drug 24 hours, then CH-11 for 48 hours (Example 11)
Description: as §5, §6

[3] = test system: HCT116 p53 null cells; assay: Propidium iodide flow cytometry, HCT116 p53 null; format: cell-based, human; settings: drug 24 hours followed by CH-11 50 ng/ml 24 hours
Description: (§1) Cells were seeded at 1×10^5 per well of a 6-well tissue culture plate. […] DNA content of harvested cells was evaluated after propidium iodide staining of cells using the EPICS XL Flow Cytometer (Coulter, Miami, Fla.). […] Cells were seeded at 1×10^5 per well of a 6-well tissue culture plate. […] DNA content of harvested cells was evaluated after propidium iodide staining of cells using the EPICS XL Flow Cytometer (Coulter). A FITC-conjugated monoclonal anti-human Fas antibody (DAKO) was used to determine cell surface expression of the receptor. Cells were collected and washed twice in PBS before incubating in the antibody (1/20 dilution) at 4° C. for 30 mins. A non-reactive FITC-conjugated mouse IgG1 antibody was used as a negative control for each sample. Following incubation the cells were washed twice with PBS containing 2% bovine serum albumin and fixed in 0.3 mL 4% paraformaldehyde. Samples were then analysed on the EPICS XL Flow Cytometer (Coulter).

[4] = test system: Fas; assay: Western blot of Fas expression in HCT116 p53 wild-type cells; format: cell-based, human; settings: for induction of Fas/CD95 protein: 5-FU 5 μM, CPT-11 5 μM, Oxaliplatin 1 μM for 48 hours; for Fas expression: RTX after 72 hours, MTA data not shown
Description: (§2) Western Blotting. Western blots were performed as previously described (6). The Fas/CD95, Bc1-2 and BID (Santa Cruz Biotechnology, Santa Cruz, Calif.), caspase 8 (Oncogene Research Products, Darmstadt, Germany), p53 (Santa Cruz Biotechnology), and PARP (Pharmingen, BD Biosciences, Oxford, England) mouse monoclonal antibodies were used in conjunction with a horseradish peroxidase (HRP)-conjugated sheep anti-mouse secondary antibody (Amersham, Little Chalfont, Buckinghamshire, England). FasL rabbit polyclonal antibody (Santa Cruz Biotechnology) was used in conjunction with an HRP-conjugated donkey anti-rabbit secondary antibody (Amersham). TS sheep monoclonal primary antibody (Rockland, Gilbertsville, Pa.) was used in conjunction with an HRP-conjugated donkey anti-sheep secondary antibody (Serotech, Oxford, England). Equal loading was assessed using a β-tubulin mouse monoclonal primary antibody (Sigma).

[5] = test system: Fas; assay: Western blot of Fas expression in HCT116 p53 null cells; format: cell-based, human; settings: CPT-11 5 μM, 48 hours
Description: as §2

[6] = test system: procaspase 8, PARP; assay: Western blot of procaspase 8 and PARP in HCT116 p53 null cells; format: cell-based, human; settings: IC60 dose 24 hours followed by CH-11 200 ng/ml 24 hours
Description: as §2

[7] = test system: Fas/CD95 mRNA; assay: Real-time PCR of Fas/CD95 mRNA in HCT116 p53 wild-type cells; format: cell-based, human; settings: IC60 72hrs doses
Description: (§3) Real-time PCR was performed using a DNA Engine Opticon 2 (MJ Research Incorporated). TheDyNAmo SYBR Green qPCR kit (Finnzymes) was used as the fluoresent dye specific for double-stranded DNA. PCR conditions consisted of an initial denaturation step of 95° C. for 10 minutes, followed by 39 cycles of 94° C. for 10 secs, 55° C. for 20 secs and 72° C. for 20 secs, with a final extension of 72° C. for 10 minutes. A melting curve was included at the end of each run to check the specificity of the amplified product. Experiments were performed in triplicate to ensure reproducibility of the technique. On completion of the run the PCR products were run put on a 2% ethidium bromide agarose gel to confirm that their size matched that of the expected amplicon. Primer sequences were as follows: Fas (Forward) […], Fas (Reverse) […], 18S (Forward) […], 18S (Reverse) […].

[8] = test system: Fas/CD95 mRNA; assay: Real-time PCR of Fas/CD95 mRNA in HCT116 p53 null cells; format: cell-based, human; settings: IC60 72hrs doses, 24 and 48 hours
Description: as §3

[9] = test system: Fas/CD95 receptor; assay: Flow cytometry of Fas/CD95 cell surface expression, HCT116 p53 null; format: cell-based, human; settings: 24 hours
Description: as §1

[10] = test system: Fas receptor; assay: Fas/CD95 cell surface expression in p53 mutant H630 cell line (Example 11); format: cell-based; settings: 48 hours; 5-FU 5 μM, CPT-11 5 μM, Oxaliplatin 1 μM
Description: (§4) Where flow cytometric analysis was employed in Examples 1 to 5, the following protocol was used. Cells were seeded at 1×10^5 per well of a 6-well tissue culture plate. […] DNA content of harvested cells was evaluated after propidium iodide staining of cells using the EPICS XL Flow Cytometer (Coulter, Miami, Fla.). Where flow cytometric analysis was employed in Examples 6 to 12, the following protocol was used. Cells were seeded at 1×10^5 per well of a 6-well tissue culture plate. […] DNA content of harvested cells was evaluated after propidium iodide staining of cells using the EPICS XL Flow Cytometer (Coulter). A FITC-conjugated monoclonal anti-human Fas antibody (DAKO) was used to determine cell surface expression of the receptor. Cells were collected and washed twice in PBS before incubating in the antibody (1/20 dilution) at 4° C. for 30 mins. A non-reactive FITC-conjugated mouse IgG1 antibody was used as a negative control for each sample. Following incubation the cells were washed twice with PBS containing 2% bovine serum albumin and fixed in 0.3 mL 4% paraformaldehyde. Samples were then analysed on the EPICS XL Flow Cytometer (Coulter).

[11] = test system: procaspase 8, BID, PARP; assay: Western blot of procaspase 8, BID and PARP in MCF-7 cells; format: cell-based
Description: as §2

[12] = test system: MCF-7 cells; assay: MTT cell viability assay in MCF-7 cells; format: cell-based
Description: as §5, §6

[13] = test system: RKO cells; assay: MTT cell viability assay in RKO cells; format: cell-based; settings: data not shown
[14] = test system: M7TS90-E6 cells; assay: Flow cytometry sub-G1/G0 apoptotic fraction, M7TS90-E6; format: cell-based; settings: 96 hours after drug treatment; RTX 100 nM, MTA 1 μM, 5-FU 10 μM
Description: as §4

[15] = test system: Fas; assay: Western blot of Fas expression in MCF-7 cells; format: cell-based
Description: as §2

[16] = test system: Fas; assay: Western blot of Fas expression in RKO cells; format: cell-based; settings: 48 hours post-treatment; MTA data not shown
Description: as §2

[17] = test system: Fas; assay: Western blot of Fas expression in M7TS90 cells; format: cell-based; settings: 10 μM 5-FU, 100 nM RTX or 1 μM MTA for 72 hours
Description: as §2

[18] = test system: Fas; assay: Western blot of Fas expression in M7TS90-E6 cells; format: cell-based; settings: 10 μM 5-FU, 100 nM RTX or 1 μM MTA
Description: as §2

[19] = test system: procaspase 8, PARP; assay: Western blot of procaspase 8 and PARP in M7TS90-E6 cells; format: cell-based; settings: p53 null; 5-FU 10 μM, RTX 100 nM, MTA 1 μM, CH-11 250 ng/ml; drugs alone data not shown
Description: as §2

[20] = test system: HCT116p53^−/− cells; assay: MTT cell viability assay in HCT116 p53 null cells; format: cell-based, human; settings: range of drug concentrations 24 hours, then CH-11 200 ng/ml for 48 hours
Description: as §5, §6

[21] = test system: Fas/CD95 receptor; assay: Flow cytometry of Fas/CD95 cell surface expression, HCT116 p53 wild-type; format: cell-based, human; settings: 24 hours
Description: as §4

[22] = test system: MCF-7 cells; assay: Flow cytometry of propidium iodide stained cells, sub-G1/G0 apoptotic fraction, MCF-7; format: cell-based; settings: 25 nM RTX 72 hours, 250 ng/ml CH-11 24 hours; untreated control ~11%
Description: as §4

[23] = test system: Fas; assay: Western blot of Fas expression in H630 cells; format: cell-based; settings: range of concentrations, 48 hours
Description: as §2

[24] = test system: FasL; assay: Western blot of FasL expression in MCF-7 cells; format: cell-based; settings: IC60 doses, 72 hours
Description: as §2

SMILES: CCc1c2c(nc3ccc(OC(=O)N4CCC(N5CCCCC5)CC4)cc13)-c1cc3c(c(=O)n1C2)COC(=O)[C@]3(O)CC [CPT-11, Irinotecan]
- interaction with CH-11 in MTT assay [1]: significant synergy
- interaction with CH-11 in MTT assay [2]: significant synergy
- interaction with CH-11 by propidium iodide staining [3]: significant synergy
- induction of Fas/CD95 protein [4]: significant induction
- induction of Fas/CD95 protein [5]: induction of Fas/CD95 protein
- PARP cleavage and procaspase 8 activation following the addition of CH-11 [6]: PARP cleavage and procaspase 8 activation
- fold induction of Fas mRNA ([7]; 24 hours): 7.0 fold
- fold induction of Fas mRNA ([7]; 48 hours): 2.5 fold
- maximum induction of Fas mRNA [8]: 1.9 fold
- induction of Fas/CD95 receptor cell surface expression [9]: induction of the Fas/CD95 receptor
- induction of the Fas receptor [10]: Induction of the Fas receptor

SMILES: CC[C@H](C)[C@H](NC(=O)OCc1ccccc1)C(=O)N[C@@H](CCC(=O)OC)C(=O)N[C@H](C(=O)N[C@@H](CC(=O)OC)C(=O)CF)[C@@H](C)O [IETD-fmk] (Cbz-IE(OMe)TD(OMe)-CH2F)
- effect on PARP cleavage in 5-FU/CH-11 co-treated cells ([11]; 10 μM IETD-fmk, 24 hours): inhibited PARP cleavage
- effect on processing of procaspase 8 in cells co-treated with 5-FU and CH-11 ([11]; 10 μM IETD-fmk, 24 hours): blocked processing of procaspase 8

SMILES: Nc1nc2[nH]cc(CCc3ccc(C(=O)N[C@@H](CCC(=O)O)C(=O)O)cc3)c2c(=O)[nH]1 [MTA, pemetrexed]
- interaction with CH-11 to decrease cell viability ([12]; data not shown): synergistically interacted
- interaction with CH-11 to decrease cell viability ([1]; data not shown): synergistically interacted
- interaction with CH-11 to decrease cell viability [13]: synergistically interacted
- induction of apoptosis by drug alone [14]: ~6 fold
- Fas expression ([15]; MTA data not shown, CH-11 alone 250 ng/ml, 5-FU alone 5 μM): up-regulated
- Fas expression [4]: up-regulated
- Fas expression [16]: up-regulated
- effect of TS induction on drug-mediated up-regulation of Fas [17]: abrogated
- Fas up-regulation [18]: did not result in Fas up-regulation
- PARP cleavage / processing [19]: processed

SMILES: O=C1[O][Pt]2([NH][C@@H]3CCCC[C@H]3[NH]2)[O]C1=O [Oxaliplatin]
- interaction with CH-11 in MTT assay [1]: significant synergy
- interaction with CH-11 in MTT assay [20]: no synergistic interaction
- induction of Fas/CD95 protein [4]: significant induction
- maximum induction of Fas mRNA [8]: no induction
- induction of Fas/CD95 receptor cell surface expression [21]: significantly induce expression
- induction of the Fas receptor [10]: Neither 5-FU nor Oxaliplatin treatment for 48 hours caused significant upregulation

SMILES: Cc1nc2ccc(CN(C)c3ccc(C(=O)N[C@@H](CCC(=O)O)C(=O)O)s3)cc2c(=O)[nH]1 [RTX, ralitrexed]
- IC60 dose ([12]; MCF-7): 25 nM
- interaction with CH-11 in MTT assay [1]: significant synergy
- cells in the sub-G1/G0 apoptotic phase [22]: ~16%
- induction of apoptosis by drug alone [14]: ~8 fold
- interaction with CH-11 by propidium iodide staining [3]: to a lesser extent
- Fas protein up-regulation ([15]; 72 hours, IC60 dose (5 μM 5-FU, 25 nM RTX)): ~7 fold
- Fas expression [4]: dramatically increased
- Fas expression [16]: dramatic Fas up-regulation
- effect of TS induction on drug-mediated up-regulation of Fas [17]: abrogated
- Fas up-regulation [18]: did not result in Fas up-regulation
- Fas expression [23]: not significantly altered
- FasL expression [24]: unaffected
- activation of caspase 8 and BID (processing of procaspase 8 and full-length BID), words ([11]; 5 μM 5-FU or 25 nM RTX 72 hours, CH-11 250 ng/ml 24 hours): neither caspase 8, nor its substrate BID were activated
- PARP cleavage / processing [19]: processed
- induction of Fas mRNA expression ([7]; 24 and 48 hours): significant induction
- induction of Fas/CD95 receptor cell surface expression [9]: induction of the Fas/CD95 receptor
